pIC50: −log10 of the molar value.
What was measured:
[1] = molecular target: Reverse transcriptase/RNase H (HIV-1); assay: The 50% inhibitory concentration was measured as inhibition of RNA-dependent DNA polymerase activity
[2] = molecular target: Reverse transcriptase/RNase H (HIV-1); assay: The 50% inhibitory concentration was measured as inhibition of DNA-dependent DNA polymerase activity

| Compound | pIC50 [1] | pIC50 [2] |
| --- | --- | --- |
| CCCCCCCCCCCCCCCC(=O)Nc1c(O)cc(S(=O)(=O)O)c2ccccc12 [4-Hexadecanoylamino-3-hydroxy-naphthalene-1-sulfonic acid] | 5.49 | – |
| CCCCCCCCCCCCCCCC(=O)Nc1ccc(S(=O)(=O)O)c2cccc(S(=O)(=O)O)c12 [4-Hexadecanoylamino-naphthalene-1,5-disulfonic acid] | 5.80 | 5.17 |
| O=S(=O)(O)c1ccc2c(OS(=O)(=O)c3cccc4c(S(=O)(=O)Oc5cc(S(=O)(=O)O)cc6cc(S(=O)(=O)O)ccc56)cccc34)cc(S(=O)(=O)O)cc2c1 [4-[5-(3,6-disulfo-1-naphthyloxysulfonyl)-1-naphthylsulfonyloxy]-2,7-naphthalenedisulfonic acid] | 5.37 | 4.04 |
| O=C(Oc1cc(S(=O)(=O)O)cc2cc(S(=O)(=O)O)ccc12)c1ccc(-c2ccc(C(=O)Oc3cc(S(=O)(=O)O)cc4cc(S(=O)(=O)O)ccc34)cc2)cc1 [Biphenyl-4,4'-dicarboxylic acid bis-(3,6-disulfo-naphthalen-1-yl) ester] | 5.47 | 5.16 |

Reference: BindingDB's records for doi:10.1021/jm00042a004 (College of Pharmacy, 1994)
